Test results: patent publication US9255295B2, “Method for evaluating the sensitizing potential of a test compound” (IMMUNOSEARCH, priority 2010, dated 2016)
Like-named read-outs stand apart in the source and are kept apart here.

Test system: ARE gene family (AKR1B10, AKR1C1, AKR1C2, CYP1B1, FTH1P, FTL, G6PD, GCLM, NQO2, SLC7A11, TXNRD1, UGT1A1, UGT1A9, YWHAZ, CD36, CYP1A1, GCLC, HMOX1, NQO1, PSME2 …)
Details: for AHR expression / AKR1B10 expression / AKR1C1 expression / AKR1C2 expression / CYP1A1 expression / CYP1B1 expression / FTH1P expression / FTL expression / GCLC expression / GCLM expression / HMOX1 expression / NQO1 expression / NQO2 expression / SLC7A11 expression / TXNRD1 expression / UGT1A1 expression / UGT1A9 expression: compared to the control

O=CC=O [Glyoxal]
AHR NUMBER OF GENES grade (10%): 0 (if this expression is lower, the grade is 0) | AKR1B10 NUMBER OF GENES grade (10%): 0 (if this expression is lower, the grade is 0) | AKR1C1 NUMBER OF GENES grade (10%): 0 (if this expression is lower, the grade is 0) | AKR1C2 NUMBER OF GENES grade (10%): 0 (if this expression is lower, the grade is 0) | ARE >1.3 (number of genes) (10%): 3 | CD36 expression compared to control (10%): 1.3 | CD36 grade (NUMBER OF GENES) (10%): 1 (If the expression is greater than 1.3 compared to the control, a grade of 11s given) | CYP1A1 NUMBER OF GENES grade (10%): 0 (if this expression is lower, the grade is 0) | CYP1B1 NUMBER OF GENES grade (10%): 0 (if this expression is lower, the grade is 0) | FTH1P NUMBER OF GENES grade (10%): 0 (if this expression is lower, the grade is 0) | FTL NUMBER OF GENES grade (10%): 0 (if this expression is lower, the grade is 0) | GCLC NUMBER OF GENES grade (10%): 0 (if this expression is lower, the grade is 0) | GCLM NUMBER OF GENES grade (10%): 1 (If the expression is greater than 1.3 compared to the control, a grade of 11s given) | HMOX1 NUMBER OF GENES grade (10%): 0 (if this expression is lower, the grade is 0) | NQO1 NUMBER OF GENES grade (10%): 0 (if this expression is lower, the grade is 0) | NQO2 NUMBER OF GENES grade (10%): 0 (if this expression is lower, the grade is 0) | S100A8 expression compared to control (10%): 0.9 | S100A8 grade (NUMBER OF GENES) (10%): 0 (if this expression is lower, the grade is 0) | SLC7A11 NUMBER OF GENES grade (10%): 1 (If the expression is greater than 1.3 compared to the control, a grade of 11s given) | TOTAL ARE (number of genes) (10%): 3 | TXNRD1 NUMBER OF GENES grade (10%): 1 (If the expression is greater than 1.3 compared to the control, a grade of 11s given) | UGT1A1 NUMBER OF GENES grade (10%): 0 (if this expression is lower, the grade is 0) | UGT1A9 NUMBER OF GENES grade (10%): 0 (if this expression is lower, the grade is 0) | AHR expression (10%): 1.0 | AKR1B10 expression (10%): 0.7 | AKR1C1 expression (10%): 1.0 | AKR1C2 expression (10%): 1.2 | CYP1A1 expression (10%): 0.0 | CYP1B1 expression (10%): 0.8 | FTH1P expression (10%): 1.1 | FTL expression (10%): 1.1 | GCLC expression (10%): 1.1 | GCLM expression (10%): 1.7 | HMOX1 expression (10%): 1.0 | NQO1 expression (10%): 1.2 | NQO2 expression (10%): 1.0 | SLC7A11 expression (10%): 1.9 | TXNRD1 expression (10%): 1.3 | UGT1A1 expression (10%): 1.0 | UGT1A9 expression (10%): 0.2 | AHR NUMBER OF GENES grade (50%): 0 (if this expression is lower, the grade is 0) | AKR1B10 NUMBER OF GENES grade (50%): 0 (if this expression is lower, the grade is 0) | AKR1C1 NUMBER OF GENES grade (50%): 0 (if this expression is lower, the grade is 0) | AKR1C2 NUMBER OF GENES grade (50%): 0 (if this expression is lower, the grade is 0) | ARE >1.3 (number of genes) (50%): 6 | CD36 expression compared to control (50%): 1.1 | CD36 grade (NUMBER OF GENES) (50%): 0 (if this expression is lower, the grade is 0) | CYP1A1 NUMBER OF GENES grade (50%): 0 (if this expression is lower, the grade is 0) | CYP1B1 NUMBER OF GENES grade (50%): 1 (If the expression is greater than 1.3 compared to the control, a grade of 11s given) | FTH1P NUMBER OF GENES grade (50%): 0 (if this expression is lower, the grade is 0) | FTL NUMBER OF GENES grade (50%): 0 (if this expression is lower, the grade is 0) | GCLC NUMBER OF GENES grade (50%): 0 (if this expression is lower, the grade is 0) | GCLM NUMBER OF GENES grade (50%): 1 (If the expression is greater than 1.3 compared to the control, a grade of 11s given) | HMOX1 NUMBER OF GENES grade (50%): 1 (If the expression is greater than 1.3 compared to the control, a grade of 11s given) | NQO1 NUMBER OF GENES grade (50%): 0 (if this expression is lower, the grade is 0) | NQO2 NUMBER OF GENES grade (50%): 0 (if this expression is lower, the grade is 0) | S100A8 expression compared to control (50%): 0.9 | S100A8 grade (NUMBER OF GENES) (50%): 0 (if this expression is lower, the grade is 0) | SLC7A11 NUMBER OF GENES grade (50%): 0 (if this expression is lower, the grade is 0) | TOTAL ARE (number of genes) (50%): 6 | TXNRD1 NUMBER OF GENES grade (50%): 1 (If the expression is greater than 1.3 compared to the control, a grade of 11s given) | UGT1A1 NUMBER OF GENES grade (50%): 1 (If the expression is greater than 1.3 compared to the control, a grade of 11s given) | UGT1A9 NUMBER OF GENES grade (50%): 1 (If the expression is greater than 1.3 compared to the control, a grade of 11s given) | AHR expression (50%): 0.9 | AKR1B10 expression (50%): 0.8 | AKR1C1 expression (50%): 0.8 | AKR1C2 expression (50%): 0.9 | CYP1A1 expression (50%): 1.1 | CYP1B1 expression (50%): 3.3 | FTH1P expression (50%): 0.9 | FTL expression (50%): 0.9 | GCLC expression (50%): 0.9 | GCLM expression (50%): 1.5 | HMOX1 expression (50%): 1.4 | NQO1 expression (50%): 0.9 | NQO2 expression (50%): 0.9 | SLC7A11 expression (50%): 1.0 | TXNRD1 expression (50%): 1.4 | UGT1A1 expression (50%): 1.4 | UGT1A9 expression (50%): 1.3
